Assay results published in US10875851B2, “Factor XIIa inhibitors” (Merck Sharp & Dohme Corp., priority 2016, dated 2020).

Target: human Factor XIIa (Homo sapiens (Human), UniProt P00748)
Assay: Factor XIIa Assay
Assay type: biochemical
Conditions: purified human Factor XIIa 500 pM; substrate n-Acetyl-Lys-Pro-Arg-AFC 100 μM; pH 7.4; read-out: FXIIa IC50
Experimental: The effectiveness of a compound of the present invention as an inhibitor of Coagulation Factor XIIa can be determined using a relevant purified serine protease, and an appropriate synthetic substrate. The rate of hydrolysis of the chromogenic or fluorogenic substrate by the relevant serine protease was measured both in the absence and presence of compounds of the present invention. Assays were conducted at room temperature or at 37° C. […] A decrease in the rate of fluorescence change in the presence of inhibitor is indicative of enzyme inhibition. Such methods are known to one skilled in the art.
Factor XIIa activity determinations were made in 50 mM HEPES buffer containing 150 mM NaCl, 5 mM CaCl2, and 0.1% PEG 8000 (polyethylene glycol; JT Baker or Fisher Scientific) at pH 7.4. Determinations were made using purified human Factor XIIa at a final concentration of 500 pM (Sekisui Diagnostics) and the synthetic substrate, n-Acetyl-Lys-Pro-Arg-AFC, TFA salt (Sigma #C6608) at a concentration of 100 μM.
Times required to achieve equilibration between enzyme and inhibitor were determined in control experiments. Initial velocities of product formation in the absence (Vo) or presence of inhibitor (Vi) were measured. IC50 was determined as the concentration of I yielding Vi=Vo/2.

Sequence of human Factor XIIa (P00748 373-615): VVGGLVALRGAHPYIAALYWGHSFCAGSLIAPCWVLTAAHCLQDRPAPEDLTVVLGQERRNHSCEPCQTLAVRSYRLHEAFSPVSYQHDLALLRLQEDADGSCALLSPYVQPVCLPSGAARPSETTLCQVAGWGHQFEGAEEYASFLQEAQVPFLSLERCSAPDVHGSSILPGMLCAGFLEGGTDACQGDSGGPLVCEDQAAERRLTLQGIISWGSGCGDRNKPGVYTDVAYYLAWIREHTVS

Structure (SMILES) | IC50
CS(=O)(=O)NCCCC[C@@H](NC1CCC2(CC1)CCN(Cc1ccccc1)C2)C(=O)N1CCN(C(=O)Oc2cccc(CN)c2Cl)C[C@H]1C(=O)NCc1cccs1 (stereo partly drawn) [Example 82, 3-(aminomethyl)-2-chlorophenyl (3S)-4-[N^2-(2-benzyl-2-azaspiro[4.5]dec-8-yl)-N^6-(methylsulfonyl)-D-lysyl]-3-[(thiophen-2-ylmethyl)carbamoyl]piperazine-1-carboxylate] | 2.1 nM
C[C@@H]1N=C(N2CCN(C(=O)[C@@H](CCCCN3CCCCC3)NC3CCC(CN)CC3)[C@H](C(=O)NCc3cc4cnccc4s3)C2)O[C@H]1c1ccccc1 (stereo partly drawn) [Example 174, (2S)-1-{N-[4-(aminomethyl)cyclohexyl]-6-piperidin-1-yl-D-norleucyl}-4-[(4S,5S)-4-methyl-5-phenyl-4,5-dihydro-1,3-oxazol-2-yl]-N-(thieno[3,2-c]pyridin-2-ylmethyl)piperazine-2-carboxamide] | 3 nM
CC(C)N[C@H](CCCCN1CCCCC1)C(=O)N1CCN(C2=N[C@@H](C)[C@H](c3ccccc3)O2)C[C@H]1C(=O)NCc1cc(F)c(CN)c(F)c1 [Example 181, (2S)-N-[4-(aminomethyl)-3,5-difluorobenzyl]-1-[N-(1-methylethyl)-6-piperidin-1-yl-D-norleucyl]-4-[(4S,5S)-4-methyl-5-phenyl-4,5-dihydro-1,3-oxazol-2-yl]piperazine-2-carboxamide] | 44.4 nM
CC(C)NCCCC[C@@H](NC(C)C)C(=O)N1CCN(C2=N[C@@H](C)[C@H](c3ccccc3)O2)C[C@H]1C(=O)NCc1cccc(Cl)c1 [Example 166, (2S)-1-[N^2,N^6-bis(1-methylethyl)-D-lysyl]-N-(3-chlorobenzyl)-4-[(4S,5S)-4-methyl-5-phenyl-4,5-dihydro-1,3-oxazol-2-yl]piperazine-2-carboxamide] | 6.8 nM
COc1cc(CNC(=O)[C@@H]2CN(C(=O)Oc3cccc4ccccc34)CCN2C(=O)[C@@H](CC2CCCCC2)NC2CCCCC2)ccc1CN [Example 24, naphthalen-1-yl (3S)-3-{[4-(aminomethyl)-3-methoxybenzyl]carbamoyl}-4-(N,3-dicyclohexyl-D-alanyl)piperazine-1-carboxylate] | 1.6 nM
CS(=O)(=O)N1CCC([C@@H](NC2CCCCC2)C(=O)N2CCN(C(=O)Oc3ccccc3Cl)C[C@H]2C(=O)NCc2cccs2)CC1 [Example 42, 2-chlorophenyl (3S)-4-{(2R)-2-(cyclohexylamino)-2-[1-(methylsulfonyl)piperidin-4-yl]acetyl}-3-[(thiophen-2-ylmethyl)carbamoyl]piperazine-1-carboxylate] | 6 nM
C[C@@H]1N=C(N2CCN(C(=O)[C@@H](CCCCNS(C)(=O)=O)NC3CCCCC3)[C@H](C(=O)NCc3cccs3)C2)O[C@H]1c1cccc(C#N)c1 [Example 116, (2S)-4-[(4S,5S)-5-(3-cyanophenyl)-4-methyl-4,5-dihydro-1,3-oxazol-2-yl]-1-[N^2-cyclohexyl-N^6-(methylsulfonyl)-D-lysyl]-N-(thiophen-2-ylmethyl)piperazine-2-carboxamide] | 17.8 nM
O=C(NCc1cccs1)[C@@H]1CN(C(=O)Oc2cccc3c2CNCC3)CCN1C(=O)[C@@H](CC1CCCCC1)NC1CCCCC1 [Example 37, 1,2,3,4-tetrahydroisoquinolin-8-yl (3S)-4-(N,3-dicyclohexyl-D-alanyl)-3-[(thiophen-2-ylmethyl)carbamoyl]piperazine-1-carboxylate] | 5.3 nM
Cc1ccc(OC(=O)N2CCN(C(=O)[C@@H](CCCCN3CCCC3)NC3CCC4(CC3)CCN(Cc3ccccc3)C4)[C@H](C(=O)NCc3cccs3)C2)c(Cl)c1C (stereo partly drawn) [Example 109, 2-chloro-3,4-dimethylphenyl (3S)-4-[N-(2-benzyl-2-azaspiro[4.5]dec-8-yl)-6-pyrrolidin-1-yl-D-norleucyl]-3-[(thiophen-2-ylmethyl)carbamoyl]piperazine-1-carboxylate] | 1 nM
C[C@@H]1N=C(N2CCN(C(=O)[C@H](CCCCN(C)C)NC3CCC4(CC3)CCN(Cc3ccccc3)C4)[C@H](C(=O)NCc3cccs3)C2)O[C@H]1c1ccccc1 (stereo partly shown) [Example 136] | 23.2 nM
CC(C)N[C@H](CCCCN1CCCCC1)C(=O)N1CCN(C2=N[C@@H](C)[C@H](c3ccccc3)O2)C[C@H]1C(=O)NCc1cccs1 [Example 115, (2S)-1-[N-(1-methylethyl)-6-piperidin-1-yl-D-norleucyl]-4-[(4S,5S)-4-methyl-5-phenyl-4,5-dihydro-1,3-oxazol-2-yl]-N-(thiophen-2-ylmethyl)piperazine-2-carboxamide] | 3.8 nM
COc1cc(CNC(=O)[C@@H]2CN(C(=O)Oc3ccc4ccccc4c3Cl)CCN2C(=O)[C@@H](CCCCNS(C)(=O)=O)NC2CCC3(CC2)CCN(Cc2ccccc2)C3)ccc1CN (stereo partly drawn) [Example 74, 1-chloronaphthalen-2-yl (3S)-3-{[4-(aminomethyl)-3-methoxybenzyl]carbamoyl}-4-[N^2-(2-benzyl-2-azaspiro[4.5]dec-8-yl)-N^6-(methylsulfonyl)-D-lysyl]piperazine-1-carboxylate] | 3.7 nM
COc1cc(CNC(=O)[C@@H]2CN(C3=N[C@@H](C)[C@H](c4ccccc4)O3)CCN2C(=O)[C@@H](CCCCN2CCCCC2)NC2CCC(CN)CC2)ccc1C(N)=O (stereo partly drawn) [Example 165, (2S)-1-{N-[4-(aminomethyl)cyclohexyl]-6-piperidin-1-yl-D-norleucyl}-N-(4-carbamoyl-3-methoxybenzyl)-4-[(4S,5S)-4-methyl-5-phenyl-4,5-dihydro-1,3-oxazol-2-yl]piperazine-2-carboxamide] | 41.1 nM
CS(=O)(=O)NCCCC[C@@H](NC1CCCCC1)C(=O)N1CCN(C(=O)Oc2ccc3ccccc3c2Cl)C[C@H]1C(=O)NCc1cccs1 [Example 70, 1-chloronaphthalen-2-yl (3S)-4-[N^2-cyclohexyl-N^6-(methylsulfonyl)-D-lysyl]-3-[(thiophen-2-ylmethyl)carbamoyl]piperazine-1-carboxylate] | 20 nM
C[C@@H]1N=C(N2CCN(C(=O)[C@@H](CCCCN(C)C)NC3CCC4(CC3)CCN(Cc3ccccc3)C4)[C@H](C(=O)NCc3cccs3)C2)O[C@H]1c1ccccc1 (stereo partly drawn) [Example 130, (2S)-1-[N^2-(2-benzyl-2-azaspiro[4.5]dec-8-yl)-N^6,N^6-dimethyl-D-lysyl]-4-[(4S,5S)-4-methyl-5-phenyl-4,5-dihydro-1,3-oxazol-2-yl]-N-(thiophen-2-ylmethyl)piperazine-2-carboxamide] | 1.2 nM
C[C@@H]1N=C(N2CCN(C(=O)[C@H](N)CCCCN3CCCCC3)[C@H](C(=O)NCc3ccc4[nH]cc(Cl)c4c3)C2)O[C@H]1c1ccccc1 [Example 162, (2S)-N-[(3-chloro-1H-indol-5-yl)methyl]-4-[(4S,5S)-4-methyl-5-phenyl-4,5-dihydro-1,3-oxazol-2-yl]-1-(6-piperidin-1-yl-D-norleucyl)piperazine-2-carboxamide] | 8.4 nM
Cc1ncnc2c(OC(=O)N3CCN(C(=O)[C@@H](CC4CCCCC4)NC4CCCCC4)[C@H](C(=O)NCc4cccs4)C3)cccc12 [Example 29, 4-methylquinazolin-8-yl (3S)-4-(N,3-dicyclohexyl-D-alanyl)-3-[(thiophen-2-ylmethyl)carbamoyl]piperazine-1-carboxylate] | 3.3 nM
O=C(NCc1cccs1)[C@@H]1CN(C(=O)Oc2cccc3ccc(O)nc23)CCN1C(=O)[C@@H](CC1CCCCC1)NC1CCCCC1 [Example 33, 2-hydroxyquinolin-8-yl (3S)-4-(N,3-dicyclohexyl-D-alanyl)-3-[(thiophen-2-ylmethyl)carbamoyl]piperazine-1-carboxylate] | 20 nM
Cc1ccc(OC(=O)N2CCN(C(=O)[C@@H](CCCCN3CCCC3C)NC3CCC4(CC3)CCN(Cc3ccccc3)C4)[C@H](C(=O)NCc3cccs3)C2)c(Cl)c1C (stereo partly drawn) [Example 110, 2-chloro-3,4-dimethylphenyl (3S)-4-[N-(2-benzyl-2-azaspiro[4.5]dec-8-yl)-6-(2-methylpyrrolidin-1-yl)-D-norleucyl]-3-[(thiophen-2-ylmethyl)carbamoyl]piperazine-1-carboxylate] | 0.3 nM
COC(N)c1cccc(OC(=O)N2CCN(C(=O)[C@@H](CCCCNS(C)(=O)=O)NC3CCC4(CC3)CCN(Cc3ccccc3)C4)[C@H](C(=O)NCc3cccs3)C2)c1 (stereo partly drawn) [Example 75, 3-[amino(methoxy)methyl]phenyl (3S)-4-[N^2-(2-benzyl-2-azaspiro[4.5]dec-8-yl)-N^6-(methylsulfonyl)-D-lysyl]-3-[(thiophen-2-ylmethyl)carbamoyl]piperazine-1-carboxylate] | 5.7 nM
C[C@H]1N=C(N2CCN(C(=O)[C@@H](CCCCNS(C)(=O)=O)NC3CCCCC3)[C@H](C(=O)NCc3cccs3)C2)O[C@H]1c1ccccc1 [Example 122, (2S)-1-[N^2-cyclohexyl-N^6-(methylsulfonyl)-D-lysyl]-4-[(4R,5S)-4-methyl-5-phenyl-4,5-dihydro-1,3-oxazol-2-yl]-N-(thiophen-2-ylmethyl)piperazine-2-carboxamide] | 13.5 nM
C[C@@H]1N=C(N2CCN(C(=O)[C@@H](CCCCN3CCCCC3)NC3CCC(CN)CC3)[C@H](C(=O)NCc3ccc4[nH]cc(Cl)c4c3)C2)O[C@H]1c1ccccc1 (stereo partly drawn) [Example 172, (2S)-1-{N-[4-(aminomethyl)cyclohexyl]-6-piperidin-1-yl-D-norleucyl}-N-[(3-chloro-1H-indol-5-yl)methyl]-4-[(4S,5S)-4-methyl-5-phenyl-4,5-dihydro-1,3-oxazol-2-yl]piperazine-2-carboxamide] | 0.6 nM
